Earlier results as cited in patent US11576924B2, “Compounds for the prevention and treatment of diseases and the use thereof” (Galectin Sciences, LLC, priority 2017, dated 2023).

Experiments:
galectin 3 = galectin 3 (Homo sapiens, UniProt P17931)
lung fibrosis = conditions: pulmonary administration (intra-tracheal instillation or nebulizers)

Sequence of galectin 3 (P17931 whole entry, species assumed): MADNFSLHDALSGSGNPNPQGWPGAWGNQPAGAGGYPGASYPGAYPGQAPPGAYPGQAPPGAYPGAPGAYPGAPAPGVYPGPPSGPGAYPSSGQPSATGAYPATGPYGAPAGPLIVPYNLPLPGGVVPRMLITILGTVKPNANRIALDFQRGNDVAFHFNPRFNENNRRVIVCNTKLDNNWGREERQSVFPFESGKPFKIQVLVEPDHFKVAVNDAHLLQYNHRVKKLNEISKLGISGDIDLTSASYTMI

binding to galectin 3 (galectin 3): bind to galectin 3
Compound: OC[C@H]1O[C@@H](S[C@@H]2O[C@H](CO)[C@H](O)[C@H](n3cc(-c4cccc(F)c4)nn3)[C@H]2O)[C@H](O)[C@@H](n2cc(-c3cccc(F)c3)nn2)[C@H]1O [TD-139]
efficacy in mouse model of lung fibrosis (lung fibrosis): effective in a mouse model of lung fibrosis
